According to patent US20210300936A1, “PYRAZOLOTRIAZOLOPYRIMIDINE DERIVATIVES AS A2A RECEPTOR ANTAGONIST” (BEIGENE, LTD., priority 2018, published 2021):

target: human A2A receptor (A2AR) (Homo sapiens, UniProt P29274); test: Luciferase reporter assay (HEK293-A2AR-luc2p/CRE/Hygro cells, 3 nM CGS21680); format: cell-based; conditions: 3 nM CGS21680, 5 h incubation
Procedure: HEK293 cells were maintained in Dulbecco's modified Eagle's medium (DMEM, Gibco) supplemented with 10% fetal bovine serum (FBS, Thermo Scientific), 100 units/mL penicillin (Gibco), and 0.1 mg/mL streptomycin (Gibco) in a humidified 37° C. environment with 5% C02. Plasmid encoding wild-type human A2A receptor (A2AR) (in pcDNA3.1) was synthesized by Genscript (Nanjing, China). Transfection of the plasmids was performed in 6-well plates with 4×10^5 cells using Lipofectamin 2000 (ThermoFisher Scientific) according to the instruction of the manufacturer. Cell clones that stably express A2AR were established and maintained in the same complete medium as the HEK293 cells in addition of G-418 (Gibico). Expression level of A2AR in each single cell clone was determined using immunoblotting and FACS method. HEK293-A2AR stable cells were then transfected with pGL4.29[luc2P/CRE/Hygro] (Promega) luciferase reporter plasmid for establishing the HEK293-A2AR-luc2p/CRE/Hygro stable cell line.
HEK293-A2AR-luc2p/CRE/Hygro cells were seeded at a density of 5,000 cells/well in DMEM with 1% FBS and 1 U/mL adenosine deaminase (ADA) (Sigma). After 18 h, the cells were treated with 3 nM CGS21680 plus a series dilution of A2AR antagonist, the compounds disclosed herein at the concentration of 0.1˜10000 nM, prepared in DMEM with 1% FBS. After 5 h incubation, the luciferase activity in cells were measured using the Bright-Glo Luciferase Assay System (Promega) according to manufacturer's instructions. The luminescence signal was measured using a PHERAstar FS plate reader (BMG Labtech). […] Maximal luminescence intensity was determined in the presence of 3 nM CGS21680 and was set as 100%. The IC50 value was calculated from a dose dependent inhibition curve across the range of compound concentrations.

Chain of human A2A receptor (A2AR) (P29274 whole entry): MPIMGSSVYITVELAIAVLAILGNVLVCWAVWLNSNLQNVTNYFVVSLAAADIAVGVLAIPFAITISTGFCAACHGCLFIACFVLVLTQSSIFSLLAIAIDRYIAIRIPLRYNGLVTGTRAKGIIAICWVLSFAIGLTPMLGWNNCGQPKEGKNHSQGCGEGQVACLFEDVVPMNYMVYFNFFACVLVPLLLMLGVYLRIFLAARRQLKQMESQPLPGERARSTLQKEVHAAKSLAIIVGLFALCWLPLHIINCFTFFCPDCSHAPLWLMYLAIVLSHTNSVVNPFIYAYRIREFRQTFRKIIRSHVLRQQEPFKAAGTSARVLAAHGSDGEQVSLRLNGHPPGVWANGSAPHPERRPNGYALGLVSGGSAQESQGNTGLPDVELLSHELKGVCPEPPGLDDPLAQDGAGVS

Row | Structure (SMILES) | IC50 [nM]
1 | CNCCOc1ccc(N2CCN(C(=O)C(C)n3ncc4c3nc(N)n3nc(-c5ccco5)nc43)CC2)cc1 (stereo not drawn) [Compound A30, 2-(5-amino-2-(furan-2-yl)-7H-pyrazolo[4,3-e][1,2,4]triazolo[1,5-c]pyrimidin-7-yl)-1-(4-(4-(2-(methylamino)ethoxy)phenyl)piperazin-1-yl)propan-1-one] | 22
2 | CCCCC(C(=O)N1CCN(c2ccc(OCCN(C)C)cc2)CC1)n1ncc2c1nc(N)n1nc(-c3ccco3)nc21 (stereo not drawn) [Compound A32, 2-(5-amino-2-(furan-2-yl)-7H-pyrazolo[4,3-e][1,2,4]triazolo[1,5-c]pyrimidin-7-yl)-1-(4-(4-(2-(dimethylamino)ethoxy)phenyl)piperazin-1-yl)hexan-1-one] | 7.2
3 | CCCCC(C(=O)N1CCN(c2ccc(OCCNC)cc2)CC1)n1ncc2c1nc(N)n1nc(-c3ccco3)nc21 (stereo not drawn) [Compound A35, 2-(5-amino-2-(furan-2-yl)-7H-pyrazolo[4,3-e][1,2,4]triazolo[1,5-c]pyrimidin-7-yl)-1-(4-(4-(2-(methylamino)ethoxy)phenyl)piperazin-1-yl)hexan-1-one] | 5.8
4 | CN(C)CCOc1ccc(N2CCN(C(=O)C(c3ccccc3)n3ncc4c3nc(N)n3nc(-c5ccco5)nc43)CC2)cc1 (stereo not drawn) [Compound A37, 2-(5-amino-2-(furan-2-yl)-7H-pyrazolo[4,3-e][1,2,4]triazolo[1,5-c]pyrimidin-7-yl)-1-(4-(4-(2-(dimethylamino)ethoxy)phenyl)piperazin-1-yl)-2-phenylethan-1-one] | 2.5
5 | CCCC(C(=O)N1CCN(c2ccc(OCCN(C)C)cc2)CC1)n1ncc2c1nc(N)n1nc(-c3ccco3)nc21 (stereo not drawn) [Compound A39, 2-(5-amino-2-(furan-2-yl)-7H-pyrazolo[4,3-e][1,2,4]triazolo[1,5-c]pyrimidin-7-yl)-1-(4-(4-(2-(dimethylamino)ethoxy)phenyl)piperazin-1-yl)pentan-1-one] | 5.3
6 | CCCC(C(=O)N1CCN(c2ccc(F)cc2)CC1)n1ncc2c1nc(N)n1nc(-c3ccco3)nc21 (stereo not drawn) [Compound A45, 2-(5-amino-2-(furan-2-yl)-7H-pyrazolo[4,3-e][1,2,4]triazolo[1,5-c]pyrimidin-7-yl)-1-(4-(4-fluorophenyl)piperazin-1-yl)pentan-1-one] | 6
7 | COCCOc1ccc(N2CCN(C(=O)C(c3ccccc3)n3ncc4c3nc(N)n3nc(-c5ccco5)nc43)C[C@@H]2C)cc1 (stereo partly drawn) [Compound A46, 2-(5-amino-2-(furan-2-yl)-7H-pyrazolo[4,3-e][1,2,4]triazolo[1,5-c]pyrimidin-7-yl)-1-((S)-4-(4-(2-methoxyethoxy)phenyl)-3-methylpiperazin-1-yl)-2-phenylethan-1-one] | 2.9
8 | COCCOc1ccc(N2CCN(C(=O)C(c3ccccc3)n3ncc4c3nc(N)n3nc(-c5ccco5)nc43)C[C@H]2C)cc1 (stereo partly drawn) [Compound A47, 2-(5-amino-2-(furan-2-yl)-7H-pyrazolo[4,3-e][1,2,4]triazolo[1,5-c]pyrimidin-7-yl)-1-((R)-4-(4-(2-methoxyethoxy)phenyl)-3-methylpiperazin-1-yl)-2-phenylethan-1-one] | 2.8

Now from value to molecule:

Row | IC50 [nM] | Structure (SMILES)
9 | 0.6 | COCCOc1ccc(N2CCN(C(=O)C(c3ccccc3OC)n3ncc4c3nc(N)n3nc(-c5ccco5)nc43)CC2)cc1 (stereo not drawn) [Compound A31, 2-(5-amino-2-(furan-2-yl)-7H-pyrazolo[4,3-e][1,2,4]triazolo[1,5-c]pyrimidin-7-yl)-1-(4-(4-(2-methoxyethoxy)phenyl)piperazin-1-yl)-2-(2-methoxyphenyl)ethan-1-one]
10 | 13.3 | COCCOc1ccc(N2CCN(C(=O)C(c3ccc4ccccc4c3)n3ncc4c3nc(N)n3nc(-c5ccco5)nc43)CC2)cc1 (stereo not drawn) [Compound A33, 2-(5-amino-2-(furan-2-yl)-7H-pyrazolo[4,3-e][1,2,4]triazolo[1,5-c]pyrimidin-7-yl)-1-(4-(4-(2-methoxyethoxy)phenyl)piperazin-1-yl)-2-(naphthalen-2-yl)ethan-1-one]
11 | 75.7 | COCCOc1ccc(N2CCN(C(=O)C(c3ccc(C(F)(F)F)cc3)n3ncc4c3nc(N)n3nc(-c5ccco5)nc43)CC2)cc1 (stereo not drawn) [Compound A34, 2-(5-amino-2-(furan-2-yl)-7H-pyrazolo[4,3-e][1,2,4]triazolo[1,5-c]pyrimidin-7-yl)-1-(4-(4-(2-methoxyethoxy)phenyl)piperazin-1-yl)-2-(4-(trifluoromethyl)phenyl)ethan-1-one]
12 | 7.7 | COCCOc1ccc(N2CCN(C(=O)C(c3cccc(C(F)(F)F)c3)n3ncc4c3nc(N)n3nc(-c5ccco5)nc43)CC2)cc1 (stereo not drawn) [Compound A36, 2-(5-amino-2-(furan-2-yl)-7H-pyrazolo[4,3-e][1,2,4]triazolo[1,5-c]pyrimidin-7-yl)-1-(4-(4-(2-methoxyethoxy)phenyl)piperazin-1-yl)-2-(3-(trifluoromethyl)phenyl)ethan-1-one]
13 | 0.6 | COCCOc1ccc(N2CCN(C(=O)C(c3ccccc3C(F)(F)F)n3ncc4c3nc(N)n3nc(-c5ccco5)nc43)CC2)cc1 (stereo not drawn) [Compound A38, 2-(5-amino-2-(furan-2-yl)-7H-pyrazolo[4,3-e][1,2,4]triazolo[1,5-c]pyrimidin-7-yl)-1-(4-(4-(2-methoxyethoxy)phenyl)piperazin-1-yl)-2-(2-(trifluoromethyl)phenyl)ethan-1-one]
14 | 23.7 | COCCOc1ccc(N2CCN(C(=O)C(c3ccc(F)c(F)c3)n3ncc4c3nc(N)n3nc(-c5ccco5)nc43)CC2)cc1 (stereo not drawn) [Compound A40, 2-(5-amino-2-(furan-2-yl)-7H-pyrazolo[4,3-e][1,2,4]triazolo[1,5-c]pyrimidin-7-yl)-2-(3,4-difluorophenyl)-1-(4-(4-(2-methoxyethoxy)phenyl)piperazin-1-yl)ethan-1-one]
15 | 5.8 | COCCOc1ccc(N2CCN(C(=O)C(c3cccc(OC)c3)n3ncc4c3nc(N)n3nc(-c5ccco5)nc43)CC2)cc1 (stereo not drawn) [Compound A41, 2-(5-amino-2-(furan-2-yl)-7H-pyrazolo[4,3-e][1,2,4]triazolo[1,5-c]pyrimidin-7-yl)-1-(4-(4-(2-methoxyethoxy)phenyl)piperazin-1-yl)-2-(3-methoxyphenyl)ethan-1-one]
16 | 5.1 | COCCOc1ccc(N2CCN(C(=O)C(c3cccc(F)c3)n3ncc4c3nc(N)n3nc(-c5ccco5)nc43)CC2)cc1 (stereo not drawn) [Compound A42, 2-(5-amino-2-(furan-2-yl)-7H-pyrazolo[4,3-e][1,2,4]triazolo[1,5-c]pyrimidin-7-yl)-2-(3-fluorophenyl)-1-(4-(4-(2-methoxyethoxy)phenyl)piperazin-1-yl)ethan-1-one]
17 | 0.9 | COCCOc1ccc(N2CCN(C(=O)C(c3ccccc3F)n3ncc4c3nc(N)n3nc(-c5ccco5)nc43)CC2)cc1 (stereo not drawn) [Compound A43, 2-(5-amino-2-(furan-2-yl)-7H-pyrazolo[4,3-e][1,2,4]triazolo[1,5-c]pyrimidin-7-yl)-2-(2-fluorophenyl)-1-(4-(4-(2-methoxyethoxy)phenyl)piperazin-1-yl)ethan-1-one]
18 | 2 | COCCOc1ccc(N2CCN(C(=O)C(c3ccccc3)n3ncc4c3nc(N)n3nc(-c5ccco5)nc43)CC2)c(F)c1 (stereo not drawn) [Compound A44, 2-(5-amino-2-(furan-2-yl)-7H-pyrazolo[4,3-e][1,2,4]triazolo[1,5-c]pyrimidin-7-yl)-1-(4-(2-fluoro-4-(2-methoxyethoxy)phenyl)piperazin-1-yl)-2-phenylethan-1-one]
